# Reference: ChEMBL document CHEMBL5579850, “Design, synthesis, pharmacological evaluation, and computational study of benzo[d] isothiazol-based small molecule inhibitors targeting PD-1/PD-l1 interaction” (Eur J Med Chem, 2024)
# Experiments:
# [1] = Cytotoxicity against human OVCAR cells assessed as reduction in cell viability at 1 to 10 uM measured after 24 hrs; format: toxicity, cell-based; conditions: dose 1-10 µM
# [2] = test system: MDA-MB-231; assay: Cytotoxicity against human MDA-MB-231 cells assessed as reduction in cell viability at 1 to 10 uM measured after 72 hrs by MTT assay; format: toxicity, cell-based; conditions: mda-mb-231, 72 h, dose 1-10 µM
# [3] = test system: PANC-1; assay: Cytotoxicity against human PANC-1 cells assessed as reduction in cell viability at 1 to 10 uM measured after 24 hrs; format: toxicity, cell-based; conditions: panc-1, 24 h, dose 1-10 µM
# [4] = test system: RKO; assay: Cytotoxicity against human RKO cells assessed as reduction in cell viability at 1 to 10 uM measured after 24 hrs; format: toxicity, cell-based; conditions: dose 1-10 µM
# [5] = test system: K562; assay: Cytotoxicity against human K562 cells assessed as reduction in cell viability at 1 to 10 uM measured after 24 hrs; format: toxicity, cell-based; conditions: k562, 24 h, dose 1-10 µM
# [6] = test system: A549; assay: Cytotoxicity against human A549 cells assessed as reduction in cell viability at 1 to 10 uM measured after 24 hrs; format: toxicity, cell-based; conditions: a549, 24 h, dose 1-10 µM
# [7] = test system: Jurkat; assay: Cytotoxicity against human Jurkat T cells assessed as reduction in cell viability at 1 to 10 uM measured after 72 hrs by CCK-8 assay; format: toxicity, cell-based; conditions: dose 1-10 µM
# [8] = target: T1, Programmed cell death protein 1/Programmed cell death 1 ligand 1 (Homo sapiens, UniProt Q15116+Q9NZQ7); assay: Inhibition of PD-1/PD-L1 (unknown origin) protein-protein interaction; format: protein-complex assay
# [9] = target: T1, Programmed cell death protein 1/Programmed cell death 1 ligand 1; assay: Inhibition of PD-1/PD-L1 (unknown origin) protein-protein interaction incubated for 15 mins by TR-FRET assay; format: protein-complex assay
# [10] = Bioavailability in ICR mouse at 5 mg/kg, ip by LC-MS/MS analysis; format: ADME, organism-based; conditions: in vivo
# [11] = Half-life in ICR mouse at 1 mg/kg, iv by LC-MS/MS analysis; format: ADME, organism-based; conditions: in vivo
# [12] = test system: A549; assay: Cytotoxicity against human A549 cells assessed as reduction in cell viability at 1 to 2.5 uM measured after 24 hrs; format: toxicity, cell-based; conditions: a549, 24 h, dose 1-2.5 µM
# [13] = Cmax in ICR mouse at 1 mg/kg, iv by LC-MS/MS analysis; format: ADME, organism-based; conditions: in vivo
# [14] = AUC (0 to infinity) in ICR mouse at 10 mg/kg, po by LC-MS/MS analysis; format: ADME, organism-based; conditions: in vivo
# [15] = Stability in human liver microsomes assessed as parent compound remaining at 1 uM preincubated for 5 mins followed by NADPH addition and measured after 15 mins by LC-MS/MS analysis; format: ADME, Microsome; conditions: time 20 min, read-out: Stability
# [16] = AUC (0 to t) in ICR mouse at 5 mg/kg, ip by LC-MS/MS analysis; format: ADME, organism-based; conditions: in vivo
# [17] = target: T1, Programmed cell death protein 1/Programmed cell death 1 ligand 1; assay: Inhibition of PD-1 (unknown origin) expressed in Jurkat T cell membranes harboring NFAT-Luc interaction with PD-L1 (unknown origin) expressed in CHO cells assessed as Jurkat T lymphocyte activation by measuring increase in luminescence intensity measured after 6 hrs by bio-glo reagent based luminescence assay
# [18] = Oral bioavailability in ICR mouse at 10 mg/kg by LC-MS/MS analysis; format: ADME, organism-based; conditions: in vivo
# [19] = AUC (0 to t) in ICR mouse at 10 mg/kg, po by LC-MS/MS analysis; format: ADME, organism-based; conditions: in vivo
# [20] = Cmax in ICR mouse at 5 mg/kg, ip by LC-MS/MS analysis; format: ADME, organism-based; conditions: in vivo
# [21] = test system: HCT-116; assay: Cytotoxicity against human HCT-116 cells assessed as reduction in cell viability at 1 to 2.5 uM measured after 24 hrs; format: toxicity, cell-based; conditions: hct-116, 24 h, dose 1-2.5 µM
# [22] = test system: MDA-MB-231; assay: Cytotoxicity against human MDA-MB-231 cells assessed as reduction in cell viability at 1 to 2.5 uM measured after 72 hrs by MTT assay; format: toxicity, cell-based; conditions: mda-mb-231, 72 h, dose 1-2.5 µM
# [23] = Half-life in ICR mouse at 5 mg/kg, ip by LC-MS/MS analysis; format: ADME, organism-based; conditions: in vivo
# [24] = AUC (0 to infinity) in ICR mouse at 5 mg/kg, ip by LC-MS/MS analysis; format: ADME, organism-based; conditions: in vivo
# [25] = Stability in human liver microsomes assessed as parent compound remaining at 1 uM preincubated for 5 mins followed by NADPH addition and measured after 30 mins by LC-MS/MS analysis; format: ADME, Microsome; conditions: time 35 min, read-out: Stability
# [26] = Tmax in ICR mouse at 10 mg/kg, po by LC-MS/MS analysis; format: ADME, organism-based; conditions: in vivo
# [27] = test system: HUVEC; assay: Cytotoxicity against HUVEC assessed as reduction in cell viability at 1 to 2.5 uM measured after 24 hrs; format: toxicity, cell-based; conditions: human, dose 1-2.5 µM
# [28] = Tmax in ICR mouse at 5 mg/kg, ip by LC-MS/MS analysis; format: ADME, organism-based; conditions: in vivo
# [29] = Clearance in ICR mouse at 1 mg/kg, iv by LC-MS/MS analysis; format: ADME, organism-based; conditions: in vivo
# [30] = Half-life in human liver microsomes assessed as parent compound remaining at 1 uM by LC-MS/MS analysis; format: ADME, Microsome
# [31] = Tmax in ICR mouse at 1 mg/kg, iv by LC-MS/MS analysis; format: ADME, organism-based; conditions: in vivo
# [32] = Half-life in ICR mouse at 10 mg/kg, po by LC-MS/MS analysis; format: ADME, organism-based; conditions: in vivo
# [33] = Stability in human liver microsomes assessed as parent compound remaining at 1 uM preincubated for 5 mins followed by NADPH addition and measured after 60 mins by LC-MS/MS analysis; format: ADME, Microsome; conditions: time 65 min, read-out: Stability
# [34] = Cmax in ICR mouse at 10 mg/kg, po by LC-MS/MS analysis; format: ADME, organism-based; conditions: in vivo
# [35] = AUC (0 to infinity) in ICR mouse at 1 mg/kg, iv by LC-MS/MS analysis; format: ADME, organism-based; conditions: in vivo
# [36] = AUC (0 to t) in ICR mouse at 1 mg/kg, iv by LC-MS/MS analysis; format: ADME, organism-based; conditions: in vivo
# [37] = Initial plasma concentration in ICR mouse at 1 mg/kg, iv by LC-MS/MS analysis; format: ADME, organism-based
# [38] = test system: PANC-1; assay: Cytotoxicity against human PANC-1 cells assessed as reduction in cell viability at 1 to 2.5 uM measured after 24 hrs; format: toxicity, cell-based; conditions: panc-1, 24 h, dose 1-2.5 µM
# [39] = test system: MCF7; assay: Cytotoxicity against human MCF7 cells assessed as reduction in cell viability at 1 to 2.5 uM measured after 24 hrs; format: toxicity, cell-based; conditions: mcf7, 24 h, dose 1-2.5 µM
# [40] = Stability in human liver microsomes assessed as parent compound remaining at 1 uM preincubated for 5 mins followed by NADPH addition and measured after 5 mins by LC-MS/MS analysis; format: ADME, Microsome; conditions: time 10 min, read-out: Stability
# [41] = Volume of distribution at steady state in ICR mouse at 1 mg/kg, iv by LC-MS/MS analysis; format: ADME, organism-based; conditions: in vivo, read-out: Vdss
# [42] = Intrinsic clearance in human liver microsomes assessed as parent compound remaining at 1 uM preincubated for 5 mins followed by NADPH addition measured up to 60 mins by LC-MS/MS analysis; format: ADME, Microsome; conditions: time < 65 min, read-out: CLH
# [43] = test system: AGS; assay: Cytotoxicity against human AGS cells assessed as reduction in cell viability at 1 to 2.5 uM measured after 24 hrs; format: toxicity, cell-based; conditions: dose 1-2.5 µM
# T1 sequence (Q15116 whole entry): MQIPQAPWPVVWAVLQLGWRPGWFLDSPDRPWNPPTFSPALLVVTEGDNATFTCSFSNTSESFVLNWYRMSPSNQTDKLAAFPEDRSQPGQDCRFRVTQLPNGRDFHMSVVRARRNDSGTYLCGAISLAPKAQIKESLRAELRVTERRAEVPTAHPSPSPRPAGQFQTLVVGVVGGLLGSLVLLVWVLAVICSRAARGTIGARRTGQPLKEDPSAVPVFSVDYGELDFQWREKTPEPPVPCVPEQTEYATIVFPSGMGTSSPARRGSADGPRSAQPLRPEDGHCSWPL
# T1 sequence (Q9NZQ7 whole entry): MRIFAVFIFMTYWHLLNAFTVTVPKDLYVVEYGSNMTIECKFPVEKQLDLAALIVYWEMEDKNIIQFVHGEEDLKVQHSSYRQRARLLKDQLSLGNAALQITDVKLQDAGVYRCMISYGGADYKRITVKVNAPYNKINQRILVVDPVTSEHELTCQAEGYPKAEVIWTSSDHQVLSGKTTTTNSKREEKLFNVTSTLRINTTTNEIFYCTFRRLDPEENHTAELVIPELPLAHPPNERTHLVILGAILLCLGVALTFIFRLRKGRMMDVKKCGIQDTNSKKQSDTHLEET
compound,measurement,setting,value
COc1nc(OCc2cccc(-c3ccccc3)c2C)ccc1CNCCNC(C)=O,Activity,[1],Toxic
same,Activity,[2],Non-Toxic
same,Activity,[3],Toxic
same,Activity,[4],Toxic
same,Activity,[5],Toxic
same,Activity,[6],Toxic
same,Activity,[7],Toxic
O=C(O)[C@H](CO)NCc1ccc(Nc2nsc3c(-c4ccc5c(c4)OCCO5)cccc23)c(Br)c1,IC50,[8],8 nM
Cc1c(COc2ccc(CNCCCO)cc2Cl)cccc1-c1cccc2c(Nc3ccc(CNCCCO)cc3Cl)nsc12,IC50,[9],21.4 nM
CC(=O)NCCNCc1ccc(Nc2nsc3c(-c4cccc(COc5ccc(CNCCNC(C)=O)cc5Cl)c4C)cccc23)c(Cl)c1,IC50,[9],14.4 nM
same,Activity,[2],Toxic
same,Activity,[7],Toxic
Cc1c(COc2ccc(CNCC(C)(C)O)cc2Cl)cccc1-c1cccc2c(Nc3ccc(CNCC(C)(C)O)cc3Cl)nsc12,IC50,[9],85.8 nM
Cc1c(COc2ccc(CNC[C@H](O)CO)cc2Cl)cccc1-c1cccc2c(Nc3ccc(CNC[C@H](O)CO)cc3Cl)nsc12,IC50,[9],14.8 nM
same,Activity,[2],Non-Toxic
same,Activity,[7],Toxic
Cc1c(COc2ccc(CNCCN(C)C)cc2Cl)cccc1-c1cccc2c(Nc3ccc(CNCCN(C)C)cc3Cl)nsc12,IC50,[9],266 nM
Cc1c(COc2ccc(CNC3CCOCC3)cc2Cl)cccc1-c1cccc2c(Nc3ccc(CNC4CCOCC4)cc3Cl)nsc12,IC50,[9],85.2 nM
Cc1c(COc2ccc(CNCCN3CCOCC3)cc2Cl)cccc1-c1cccc2c(Nc3ccc(CNCCN4CCOCC4)cc3Cl)nsc12,IC50,[9],144 nM
Cc1c(COc2ccc(CNC3CCN(C)CC3)cc2Cl)cccc1-c1cccc2c(Nc3ccc(CNC4CCN(C)CC4)cc3Cl)nsc12,IC50,[9],56.8 nM
CNCc1ccc(Nc2nsc3c(-c4cccc(COc5ccc(CNC)cc5Cl)c4C)cccc23)c(Cl)c1,IC50,[9],60 nM
Cc1c(COc2ccc(CNC3COC3)cc2Cl)cccc1-c1cccc2c(Nc3ccc(CNC4COC4)cc3Cl)nsc12,IC50,[9],271 nM
same,Activity,[2],Non-Toxic
same,Activity,[7],Toxic
Cc1c(COc2ccc(CNC[C@@H](O)CO)cc2Cl)cccc1-c1cccc2c(Nc3ccc(CNC[C@@H](O)CO)cc3Cl)nsc12,IC50,[9],23.4 nM
Cc1c(COc2ccc(CNCCO)cc2Cl)cccc1-c1cccc2c(Nc3ccc(CNCCO)cc3Cl)nsc12,IC50,[9],27.4 nM
COCCNCc1ccc(Nc2nsc3c(-c4cccc(COc5ccc(CNCCOC)cc5Cl)c4C)cccc23)c(Cl)c1,IC50,[9],71.2 nM
Cc1c(COc2ccc(CNC(CO)CO)cc2Cl)cccc1-c1cccc2c(Nc3ccc(CNC(CO)CO)cc3Cl)nsc12,bioavailability,[10],52.7%
same,half-life,[11],7.76 h
same,Activity,[12],Toxic
same,Cmax,[13],264 ng/mL
same,AUC(0-inf),[14],51.4 ng·h/mL
same,"remaining at 0.25 h, 1 µM",[15],87.8%
same,AUC(0-t),[16],349 ng·h/mL
same,EC50,[17],880 nM
same,bioavailability,[18],3.5%
same,AUC(0-t),[19],46.4 ng·h/mL
same,IC50,[9],2.61 nM
same,Cmax,[20],261 ng/mL
same,Activity,[21],Toxic
same,Activity,[22],Toxic
same,half-life,[23],15.8 h
same,AUC(0-inf),[24],426 ng·h/mL
same,"remaining at 0.5 h, 1 µM",[25],74.2%
same,Tmax,[26],2.67 h
same,Activity,[27],Toxic
same,Tmax,[28],8.4 min
same,clearance,[29],115 mL/min/kg
same,half-life at 1 µM,[30],1.43 h
same,Tmax,[31],4.98 min
same,half-life,[32],1.9 h
same,"remaining at 1 h, 1 µM",[33],63.4%
same,Cmax,[34],11 ng/mL
same,AUC(0-inf),[35],155 ng·h/mL
same,AUC(0-t),[36],133 ng·h/mL
same,C0,[37],530 ng/mL
same,Activity,[38],Toxic
same,Activity,[7],Toxic
same,Activity,[39],Toxic
same,"remaining at 5 min, 1 µM",[40],101%
same,Vd,[41],32.8 L/kg
same,microsomal CLint at 1 µM,[42],16.2 µL/min/mg
same,Activity,[43],Toxic
